The record followed here is patent publication US20220017468A1, “ISOQUINOLINE COMPOUNDS AND THEIR USE IN TREATING AhR IMBALANCE” (Dermavant Sciences GmbH, priority 2020, published 2022).

The target of data set [1] is T1, AhR (Homo sapiens, UniProt P35869).
T1 construct: LS-180 cells stably transfected with a CYP1A1 promoter-linked beta-lactamase gene reporter construct; endogenous in cells; host or cells: CYP1A1-bla LS-180 cells
T1 sequence (P35869 11-848): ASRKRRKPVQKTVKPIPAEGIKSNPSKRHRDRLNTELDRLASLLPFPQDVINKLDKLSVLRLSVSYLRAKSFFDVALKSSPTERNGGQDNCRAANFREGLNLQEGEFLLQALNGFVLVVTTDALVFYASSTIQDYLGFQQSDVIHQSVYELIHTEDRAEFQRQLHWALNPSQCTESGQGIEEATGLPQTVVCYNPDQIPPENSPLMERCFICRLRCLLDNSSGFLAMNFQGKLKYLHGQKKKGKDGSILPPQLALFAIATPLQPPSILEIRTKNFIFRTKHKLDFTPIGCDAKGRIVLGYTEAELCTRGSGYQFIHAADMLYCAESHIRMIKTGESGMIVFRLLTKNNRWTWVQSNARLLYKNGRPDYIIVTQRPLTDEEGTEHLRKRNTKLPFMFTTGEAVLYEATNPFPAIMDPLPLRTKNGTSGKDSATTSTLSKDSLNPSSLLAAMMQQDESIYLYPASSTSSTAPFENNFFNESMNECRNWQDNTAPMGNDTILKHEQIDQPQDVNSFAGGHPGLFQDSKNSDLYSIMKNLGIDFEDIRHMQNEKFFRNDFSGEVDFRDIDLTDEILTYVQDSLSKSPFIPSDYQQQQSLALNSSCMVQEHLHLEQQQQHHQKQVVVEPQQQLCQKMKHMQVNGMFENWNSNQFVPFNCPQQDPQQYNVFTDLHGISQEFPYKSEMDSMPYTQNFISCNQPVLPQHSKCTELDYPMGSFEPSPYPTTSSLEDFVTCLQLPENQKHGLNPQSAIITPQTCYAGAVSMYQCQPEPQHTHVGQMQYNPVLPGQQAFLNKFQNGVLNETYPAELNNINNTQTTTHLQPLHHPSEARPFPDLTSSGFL
The data set can be described thus: CYP1A1-bla LS-180 AhR agonist assay. The class given is cell-based.
Description: LS-180 cells stably transfected with a CYP1A1 promoter-linked beta-lactamase gene reporter construct (termed CYP1A1-bla LS-180 cells) were used to characterize the ability of compounds to activate AhR. In brief, AhR activity was measured using the LiveBLAzer assay kit which utilizes a beta lactamase (bla) reporter gene downstream of CYP1A1 promoter, which metabolizes its substrate to give a fluorescent readout. For the agonist assay, CYP1A1-bla LS-180 cells were treated with increasing concentrations of compound over a 100,000-fold concentration range.
CYP1A1-bla LS-180 cells in exponential growth phase were washed twice with DPBS then seeded into 96-well microplates (50,000 cells/well) and allowed to adhere. […] The LiveBLAzer FRET B/G β-lactamase substrate was added in the final hour of incubation and resulting blue/green fluorescence was measured using a 96-well microplate reader.
AhR activity was measured as a function of beta-lactamase expression using a fluorescence resonance energy transfer-based readout. TCDD and FICZ were used as controls to validate the system.

Data set [2] deals with T1, AhR. The data set can be described thus: CYP1A1-bla LS-180 AhR antagonist assay. The class given is cell-based. The following applies: competition of FICZ- or TCDD-induced AhR activation. On the procedure:
A similar assay was used to evaluate the antagonist capacity of compounds. CYP1A1-bla LS-180 cells in exponential growth phase were washed twice with DPBS then seeded into 96-well microplates (50,000 cells/well) and allowed to adhere. Either FICZ or TCDD was added as an agonist and prepared compounds (2× working concentrations in complete media) were added 2 hours later. Cells were incubated for ˜20 hrs, after which compounds were tested for their ability to compete FICZ- or TCDD-induced AhR activation as a means to evaluate potential allosteric or partial agonist activity. The LiveBLAzer FRET B/G β-lactamase substrate was added in the final hour of incubation and resulting blue/green fluorescence was measured using a 96-well microplate reader, as described above.

The nature of data set [3]: plasma protein binding by Rapid Equilibrium Dialysis, human. The format is in vitro ADME. Particulars: human, plasma. An excerpt: (§1) The blood-to-plasma ratios were similar across species (1.22-1.36, Table 9).
Data set [4] deals with Human Plasma Proteins. The description is as above. The class given is in vitro ADME.
From the text: as §1

Data set [5] in a line: metabolic stability in liver microsomes, rat. The format is in vitro ADME. (In general: Microsomes from liver hold many membrane-bound enzymes, among them those of drug oxidation.)
The nature of data set [6]: metabolic stability in liver microsomes, dog. The class given is in vitro ADME.
Data set [7] is described as follows: metabolic stability in hepatocytes, human. The class given is in vitro ADME.
A short description of data set [8]: pharmacokinetics after a single intravenous dose, minipig. The format is in vivo. Particulars: plasma, 1 mg/kg intravenous, mean. An excerpt: Bioavailability was 46.5% and 41.0% for 30% Captisol and 30% Cavitron, respectively. 30% Captisol formulation was selected for the 7-day subcutaneous toxicity study in rat.

“And” between values parts separate entries of the source, which are not always exact repeats. Identical values can stand only once. Like-named read-outs stand apart in the source and are kept apart here.

Regarding `CC(C)c1c(O)cc(-c2cc3ccccc3cn2)cc1O`, in data set [1], the EC50 was found to be 15.8 nM. Also, the “AhR antagonist assay result” value in data set [2] is on record as “negative”. Moreover, the results for the fraction unbound at 2 μM in data set [3] (read-out: % Unbound Mean (% CV)), in data set [3] (read-out: % Unbound Replicate) and in data set [3] (read-out: Mean % Bound (converted)) were 0.0108, 0.0106 and 0.011, respectively. This compound also had a recovery at 2 μM in data set [4] of 102%. In addition, the “% Unbound Replicate” value in data set [4] (2 μM) was 1.05% and 1.13%. Besides, the “Mean % Stability at 4 hrs” value in data set [4] (2 μM) turned out to be 101%. Further, the “CLint, mic” value in data set [5] (rat liver microsomes, 0.5 μM) amounted to 6.21 mL/min/g liver; in data set [6] (dog liver microsomes, 0.5 μM), 1.59 mL/min/g liver. The CLint scaled at 0.5 μM in data set [5] (rat liver microsomes, 0.5 μM, read-out: Scaled CLint, mic) was found to be 224 mL/min/kg; in data set [6] (dog liver microsomes, 0.5 μM, read-out: Scaled CLint, mic), 51.7 mL/min/kg; in data set [7] (read-out: Scaled CLint, hep), 384 mL/min/kg. The half-life at 0.5 μM is 10.3 min in data set [5] (rat, microsomes); 32.1 min in data set [6] (dog, microsomes); 10.4 min in data set [7]. Further, the “CLint, hep” value in data set [7] (0.5 μM) is reported as 15.7 mL/min/g liver. This compound had an AUC(0-inf) in data set [8] of 783 ng·h/mL. The compound further had a half-life in data set [8] of 61.2 min. The clearance in data set [8] (read-out: CLp) is 21.3 mL/min/kg. Besides, the Vd in data set [8] (read-out: Vss) was 1.5 L/kg.

As a reminder, the EC50 is the concentration at which the effect is half-maximal. As usually defined, the CLint scaled is the rate of metabolic loss divided by the concentration. As usually defined, the half-life is the time in which the quantity being followed falls by half. Higher therefore signals slow decline. What is called AUC(0-inf) is total exposure, with the tail of the curve extrapolated. Read a high AUC(0-inf) as more exposure.
